Measurements as given in patent publication US9134313B2, “Method of detecting colorectal cancer of stages 0 to I” (Tokyo Metropolitan Organization For Medical Research, priority 2003, dated 2015).

System: anti-DiAcSpm antibody Code No. NZW 2
Experiment: Cross-reactivity of affinity-purified anti-DiAcSpm antibody with urinary DiAcSpm analogues
Assay type: binding, rabbit
Details: for Cross-reactivity (1)x(2) %: cross-reactivity multiplied by abundance in urine: interference on urinary DiAcSpm determination; for KiDiAcSpm/Ki"s"(%) (1): cross-reactivity of antibody NZW 2 with each polyamine, DiAcSpm = 100
From the text: The antibody of the invention has one or both of the following properties: (i) its cross-reactivity with N^1-AcSpd (which is present in urine as a DiAcSpm analogue in an amount about 30-times greater than DiAcSpm) is 0.1% or less; (ii) total interference on the measurement results caused by its cross-reaction with DiAcSpm analogues present in urine is 5% or less. The numerical value mentioned in (i) above is a value showing the nature of the antibody. The numerical value mentioned in (ii) above is a value obtained by multiplying cross-reactivity itself by the abundance of these analogues in urine; this value can be an indicator showing how much interference these analogues would give actually on the quantitative determination of DiAcSpm.
Step-wise affinity purification was carried out to examine whether specific antibodies with sufficient purity applicable to a urinary DiAcSpm measuring system can be obtained. The affinity purification was carried out step-wise based on the method of Kawakita et al. (Hiramatsu, K. et al., J. Biochem., 124, 231-236 (1998)), using DiAcSpm column and DiSpd column prepared by derivatizing carboxy-Toyopearl with AcSpm and N8-AcSpd (FIG. 3).
Further, the total interference on the measurement results caused by the cross-reaction of this antibody with DiAcSpm analogues present in urine was 2.9%; thus, cross-reactivity of 5% or less was achieved (FIG. 4, Table 3).

KiDiAcSpm/Ki"s"(%) (1) | SMILES | Cross-reactivity (1)x(2) % | KiDiAcSpm/Ki"s"(%) (1) (listed as N^1-AcSpd)
0.418% | CC(=O)NCCCNCCCCNCCCN [AcSpm, monoacetylspermine] | 0.131% | –
0.032% | CC(=O)NCCCCNCCCNC(C)=O [DiAcSpd, N^1,N^8-diacetylspermidine] | 0.094% | –
100% | CC(=O)NCCCNCCCCNCCCNC(C)=O [DiAcSpm, N^1,N^12-diacetylspermine] | 100% | –

More lines, now with the values behind:

SMILES | KiDiAcSpm/Ki"s"(%) (1) | Cross-reactivity (1)x(2) % | KiDiAcSpm/Ki"s"(%) (1) (listed as N^1-AcSpd)
CC(=O)NCCCNCCCCN [N1-AcSpd, N^1-Ac-Spermidine] | 0.100% | 2.65% | ≤ 0.1%
CC(=O)NCCCCNCCCN [N8-AcSpd, N^8-Ac-Spermidine] | 0.001% | 0.024% | –
